pIC50, pKi: −log10 of the molar value. Where two headings read alike, the source gives them in different places.
What was measured:
[1] = target: recombinant RORγ Ligand Binding Domain (LBD) protein (Homo sapiens (Human), UniProt P51449); assay: Radio-Ligand RORγ Binding Assay (Assay 1); settings: competition with 25-hydroxy [26,27-3H]-cholesterol, SPA, read-out: RORγ Binding Ki Range*
Method: Radio-Ligand RORγ Binding Assay (Assay 1)
Compounds of the present invention were tested for ability to bind to RORγ in a cell-free competition assay with commercially available radio-ligand (RL), 25-hydroxy [26,27-^3H]— cholesterol (PerkinElmer, Cat. # NET674250UC), for a ligand binding site on a recombinant RORγ Ligand Binding Domain (LBD) protein expressed as a 6×His-Glutathione-S-Transferase (GST) fusion (“6×His” disclosed as SEQ ID NO: 2). The assay was performed in 96-well SPA plates (PerkinElmer, Cat. #1450-401) in 50 mM HEPES buffer, pH 7.4, containing 150 mM NaCl, 5 mM MgCl2, 10% (v/v) glycerol, 2 mM CHAPS, 0.5 mM β-octylglucopyranoside and 5 mM DTT. Tested compounds were dissolved in DMSO, and semi-log (3.162×) serial dilutions of the compounds were prepared in the same solvent. Two μL of the DMSO solutions were mixed with 28 μL of 8.6 nM 25-hydroxy [26,27-^3H]— cholesterol and 50 μL of 24 nM RORγ LBD. The plate was shaken at 700 rpm for 20 min and incubated for 10 min at rt, after which 40 μL of poly-Lys YSi SPA beads (PerkinElmer, Cat. # RPNQ0010) were added to achieve 50 μg of the beads per well. The plate was incubated on an orbital shaker for 20 min and then for 10 min without agitation at rt. SPA signal for tritium beta radiation was registered on PerkinElmer Microbeta plate reader. Percent inhibition values were calculated based on the high signal obtained with DMSO control and the low signal observed with 10 μM standard RORγ inverse agonist T0901317 (SigmaAldrich, Cat. # T2320). The percent inhibition vs. concentration data were fit into a four-parameter model, and […] values were calculated from the fit as the concentrations corresponding to the inflection points on the dose-response curves. Inhibitory constants (Ki) were calculated using the following equation, where [RL] is the concentration in the assay and KD is a dissociation constant of 25-hydroxy [26,27-^3H]-cholesterol: […]

[2] = target: full-length RORγt in Jurkat cells (Homo sapiens (Human), UniProt P51449); assay: RORγt 5xRORE Assay in Jurkat Cells (Assay 2); format: cell-based; settings: Nanoluc luciferase reporter, 16-18 hrs
full-length RORγt in Jurkat cells, sequence (P51449 other isoform, or with tags, fused parts or gaps): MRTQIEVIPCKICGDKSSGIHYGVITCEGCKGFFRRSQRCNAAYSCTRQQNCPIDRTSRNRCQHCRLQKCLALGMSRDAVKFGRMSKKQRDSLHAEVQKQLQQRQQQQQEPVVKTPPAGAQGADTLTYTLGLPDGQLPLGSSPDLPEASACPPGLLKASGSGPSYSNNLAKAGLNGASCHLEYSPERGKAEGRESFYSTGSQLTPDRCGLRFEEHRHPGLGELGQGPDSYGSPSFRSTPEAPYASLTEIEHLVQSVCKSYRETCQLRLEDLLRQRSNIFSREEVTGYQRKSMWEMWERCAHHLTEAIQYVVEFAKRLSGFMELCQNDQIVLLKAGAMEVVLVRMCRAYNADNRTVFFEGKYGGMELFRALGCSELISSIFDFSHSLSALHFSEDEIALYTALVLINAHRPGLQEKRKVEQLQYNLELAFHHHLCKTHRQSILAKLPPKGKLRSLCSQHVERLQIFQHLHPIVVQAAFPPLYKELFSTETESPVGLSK
Method: [formula] RORγt 5xRORE Assay in Jurkat Cells (Assay 2)
Compounds of the present invention were tested for RORγ inverse agonist activity in a cell-based, transcriptional activity assay. Secreted Nanoluc® luciferase was used as a reporter for transcriptional activity of the full-length RORγt in Jurkat cells (ATCC, Cat. # TIB-152). A reporter plasmid was constructed by inserting 5 repeats of the ROR Response Element (RORE) […] (SEQ ID NO:1) into a commercially available promoterless plasmid pNL1.3[secNluc] (Promega, Cat. # N1021) using KpnI and HindIII restriction sites. The expression plasmid for RORγt was purchased (Geneocopoeia, Cat. # EX-T6988-M02). Jurkat cells (30 million cells) were transfected with 11 μg of EX-T6988-MO2 and 26 μg of the reporter plasmid in OptiMEM® media using Lipofectamine® LTX and Plus™ reagents (Life Technologies, Cat. #15338-100). After 5-6 h of incubation at 37° C./5% CO2, the cells were collected, resuspended in phenol-red free RPMI media containing 10% (v/v) delipidated FBS (Hyclone, Cat. # SH30855.03) and dispensed into 96-well clear bottom tissue culture plates (CoStar, Cat. #3603), at 80,000 cells per well. Tested compounds were added to the cells in the same media (final concentration of DMSO was 0.1% (v/v)), and the plates were incubated at 37° C./5% CO2 for 16-18 hrs. Luciferase activity in the conditioned supernatants was determined with NanoGlo® assay reagents (Promega, Cat. # N1130).

[3] = Table 9, read-out: RORγt5X IC50 Range*
[4] = Table 8, read-out: RORγt5X IC50 Range*

recombinant RORγ Ligand Binding Domain (LBD) protein, sequence (P51449 269-508): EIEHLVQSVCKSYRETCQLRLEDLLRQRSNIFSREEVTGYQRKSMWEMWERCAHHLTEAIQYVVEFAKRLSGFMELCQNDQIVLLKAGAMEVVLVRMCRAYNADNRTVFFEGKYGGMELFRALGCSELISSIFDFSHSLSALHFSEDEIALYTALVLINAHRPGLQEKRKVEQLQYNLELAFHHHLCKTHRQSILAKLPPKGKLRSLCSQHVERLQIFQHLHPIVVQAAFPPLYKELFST

**Q.** How did the pKi ([1]; Table 9) turn out when `CCc1ccc(CN2Cc3sc(NC(=O)Cc4ccc(S(C)(=O)=O)cc4)nc3[C@H]2C(C)C)cc1` was run?
**A.** > 7.00

**Q.** What about the pIC50 [2, 3] of the same compound?
**A.** < 6.00

**Q.** `CC(C)[C@H]1c2nc(NC(=O)Cc3ccc(S(C)(=O)=O)cc3)sc2CN1Cc1ccc(C#N)cc1F` [I-B17] was tested. Which pKi ([1]; Table 8) did it give?
**A.** > 7.00

**Q.** And the pIC50 [2, 4]?
**A.** > 7.00

**Q.** Which results are given for `CCS(=O)(=O)c1ccc(CC(=O)Nc2nc3c(s2)CN(C[C@@H]2CN(C(=O)OC(C)(C)C)CCO2)[C@H]3C(C)C)cc1` [I-A43]?
**A.** pKi ([1]; Table 8): > 7.00; pIC50 [2, 4]: > 7.00

**Q.** How did the pKi ([1]; Table 9) turn out when `CCS(=O)(=O)c1ccc(CNC(=O)c2nc3c(s2)CN(C[C@H]2CC[C@H](C(F)(F)F)CC2)[C@H]3C(C)C)nc1` was run?
**A.** 6.00 to 7.00

**Q.** What about the pIC50 [2, 3] of the same compound?
**A.** 6.00 to 7.00

**Q.** How did the pKi ([1]; Table 9) turn out when `CC(C)[C@H]1c2nc(NC(=O)Cc3ccc(C#N)cc3)sc2CN1Cc1ccc(C#N)c(Cl)c1` was run?
**A.** > 7.00

**Q.** And the pIC50 [2, 3]?
**A.** 6.00 to 7.00

**Q.** How did the pKi ([1]; Table 9) turn out when `CCS(=O)(=O)c1ccc(CC(=O)Nc2nc3c(s2)CN(Cc2ccc(=O)n(C4CC4)c2)[C@H]3C(C)C)cc1` was run?
**A.** > 7.00

**Q.** And the pIC50 [2, 3]?
**A.** 6.00 to 7.00

**Q.** Which results are given for `CC(C)[C@H]1c2nc(NC(=O)Cc3ccc(S(C)(=O)=O)cc3)sc2CN1Cc1ccc(C(F)(F)F)nn1`?
**A.** pKi ([1]; Table 9): 6.00 to 7.00; pIC50 [2, 3]: 6.00 to 7.00

**Q.** Which results are given for `CCS(=O)(=O)c1ccc(CC(=O)Nc2nc3c(s2)CN(CC2CCOCC2)[C@H]3C(C)C)cc1`?
**A.** pKi ([1]; Table 9): > 7.00; pIC50 [2, 3]: < 6.00

**Q.** `CC(C)[C@H]1c2nc(NC(=O)Cc3ccc(-c4nnn(C)n4)cc3)sc2CN1Cc1ccc(Cl)cc1` was tested. Which pKi ([1]; Table 9) did it give?
**A.** 6.00 to 7.00

**Q.** What about the pIC50 [2, 3] of the same compound?
**A.** 6.00 to 7.00

**Q.** Which results are given for `CCS(=O)(=O)c1ccc(CC(=O)Nc2nc3c(s2)CN(C[C@H]2CC[C@@H](C(=O)O)CC2)[C@H]3C(C)C)cc1`?
**A.** pKi ([1]; Table 9): 6.00 to 7.00; pIC50 [2, 3]: < 6.00

**Q.** With `CCS(=O)(=O)c1ccc(CC(=O)Nc2nc3c(s2)CN(C[C@H]2CC[C@@](OC)(C(F)(F)F)CC2)[C@H]3C(C)C)nc1` (single isomer, unassigned) as the compound, how does the pKi ([1]; Table 9) read?
**A.** > 7.00

**Q.** What about the pIC50 [2, 3] of the same compound?
**A.** 6.00 to 7.00

**Q.** With `CCS(=O)(=O)c1ccc(CC(=O)Nc2nc3c(s2)CN(Cc2ccc4c(c2)OC(F)(F)O4)[C@H]3C(C)C)nc1` [I-L3] as the compound, how does the pIC50 [2, 4] read?
**A.** > 7.00

**Q.** `CCS(=O)(=O)c1ccc(CC(=O)Nc2nc3c(s2)CN(C[C@@H]2CC[C@@H](C(F)(F)F)N(C)C2)[C@H]3C(C)C)cc1` [I-A30] was tested. Which pIC50 [2, 4] did it give?
**A.** > 7.00

**Q.** How did the pKi ([1]; Table 9) turn out when `CC[C@H]1c2nc(NC(=O)Cc3ccc(C(=O)OC)cc3)sc2CN1Cc1ccc(Cl)cc1` was run?
**A.** 6.00 to 7.00

**Q.** `CC(C)[C@@H]1c2nc(NC(=O)Cc3ccc(S(C)(=O)=O)cc3)sc2CN1Cc1ccc(Br)cc1` was tested. Which pKi ([1]; Table 9) did it give?
**A.** 6.00 to 7.00

**Q.** How did the pKi ([1]; Table 9) turn out when `CCS(=O)(=O)c1ccc(CC(=O)Nc2nc3c(s2)CN(C(=O)Cc2ccccc2)[C@@H]3C(C)C)cc1` was run?
**A.** 6.00 to 7.00

**Q.** How did the pKi ([1]; Table 9) turn out when `CCS(=O)(=O)c1ccc(CC(=O)Nc2nc3c(s2)CN(Cc2ccc(S(C)(=O)=O)cc2)[C@@H]3C(C)C)cc1` was run?
**A.** 6.00 to 7.00

**Q.** How did the pKi ([1]; Table 9) turn out when `CC(C)[C@H]1c2nc(NC(=O)Cc3ccc(S(C)(=O)=O)cc3F)sc2CN1Cc1cnc(C(F)(F)F)nc1` was run?
**A.** 6.00 to 7.00

**Q.** `COC(=O)c1coc(CN2Cc3sc(NC(=O)Cc4ccc(S(C)(=O)=O)cc4)nc3[C@H]2C(C)C)n1` was tested. Which pKi ([1]; Table 9) did it give?
**A.** < 6.00

**Q.** How did the pKi ([1]; Table 9) turn out when `CCS(=O)(=O)c1ccc(CNC(=O)c2nc3c(s2)CN(CC2CNCCO2)[C@H]3C(C)C)cc1` (stereo partly shown) was run?
**A.** < 6.00

**Q.** `CCOC(=O)c1cnc(N2Cc3sc(C(=O)NCc4ccc(S(=O)(=O)CC)cc4)nc3[C@@H]2C(C)C)nc1C(F)(F)F` was tested. Which pKi ([1]; Table 9) did it give?
**A.** < 6.00

**Q.** `CCS(=O)(=O)c1ccc(CNC(=O)c2nc3c(s2)CN(Cc2ccn(C(F)F)c(=O)c2)[C@H]3C(C)C)cc1` was tested. Which pKi ([1]; Table 9) did it give?
**A.** 6.00 to 7.00

**Q.** How did the pKi ([1]; Table 9) turn out when `CCS(=O)(=O)c1ccc(CC(=O)Nc2nc3c(s2)CN(Cc2ccc(S(C)(=O)=O)cc2)C3(C)C)cc1` was run?
**A.** < 6.00

From patent publication US9868748B2, “Thiazolopyrrolidine inhibitors of ROR- γ” (Vitae Pharmaceuticals, Inc., priority 2013, dated 2018)
